Reference: patent US3959283A, “Amino-derivatives of 1,4-benzodioxan” (Laboratoire L. Lafon, priority 1974, dated 1976)
Structures can show the parent of a compound that is named as a salt.

Columns and labels:
[1] = tested on: vertebral, femoral and mesenteric arteries; experiment: Vasodilating properties, intravenous administration, arterial flow rates; assay type: in vivo, dogs; conditions: for increase in vertebral flow rate: 0.25 mg/kg perfused i.v.
Procedure: When administered intravenously, the following results were observed:
A third test is carried out by injecting, without stopping, 0.5, 1, 2 and 4 mg/kg, that is to say a total of 7.5 mg/kg.

adrenergic receptors [2] = experiment: Oral α-blocking activity in dogs (hypertensive effects of adrenalin); assay type: in vivo; conditions: orally
femoral artery = experiment: Vasodilating properties, injection into the femoral artery; assay type: in vivo, dogs
Procedure: On injection into the femoral artery, no effect is observed at doses of less than 100 μg/kg. […] At these doses, no effect is observed on the arterial pressure AP measured in accordance with the usual conditions.

man [3] = experiment: Clinical studies in man, tablets or injectable ampoules (product of Example 2); assay type: in vivo; conditions: tablets (50 mg) or injectable ampoules (10 mg)
Text: In clinical studies, good results were obtained in man by administering tablets such as: […]

dogs [4] = experiment: Coronary flow rate and haemodynamics in anaesthetised dogs, intravenous perfusion; assay type: in vivo
Procedure: (§2) During the series of pharmacological tests, the following parameters were used:
(§3) Arterial pressure (abbreviated to AP): this parameter, expressed in mm Hg) is evaluated in accordance with the usual conditions.
Arterial resistance: this parameter (expressed in dynes/sec./cm^^-5) is calculated according to the ratio [formula]
Cardiac index: this parameter is expressed in ml/min./kg.
Systolic index: this parameter is equal to the ratio cardiac index/frequency.
Cardiac work: this parameter (expressed in kgm/min.) is calculated according to the relationship: Cardiac work = average AP (mm Hg) × 1.36 = cardiac output (1/min.) × 10^^-3.
Ratio dp/dt: this parameter corresponds to the variation in pressure expressed in mm Hg per second (in English: Rate of rise of left ventricular pressure).
The technique used to measure the ratio dp/dt is as follows:
The cardiac output is determined in Beagle dogs weighing 10 to 15 kg, anesthetised with pentobarbital, by injecting Cardiogreen (1 mg in 0.5 ml) into the right ventricle. A catheter introduced via the carotid artery into the aorta makes it possible to aspirate arterial blood at the rate of 25 ml/min. and to pass it in front of the photoelectric cell of a Beckman cardiodensitometer. The results are interpreted in accordance with the Hamilton method.

adrenergic receptors [5] = experiment: Effect on responses to adrenalin, acetylcholine, isoprenalin and vagus stimulation (product of Example 2); assay type: in vivo, dogs
vertebral artery = experiment: Vasodilating properties, injection into the vertebral artery; assay type: in vivo, dogs
Procedure: On injection into the vertebral artery, no effect is observed at doses of less than 1 mg/kg. At a dose of 10 mg/kg, the flow rate increases by 37% and at a dose of 20 mg/kg it only increases by 27%. At these two doses, the arterial pressure decreases respectively by 14 and 28% although no effect had been observed during the injection into the femoral artery.

adrenergic receptors [6] = experiment: α-blocking activity, parenteral (LL 1756); assay type: in vivo
peripheral vagus = experiment: Effect on the amines and reflexes: stimulation of the peripheral vagus; conditions: in vivo
Text: (§1) In Table III below, the effects of the products on the amines and the reflexes have been summarised.

central vagus = experiment: Effect on the amines and reflexes: stimulation of the central vagus; conditions: in vivo
Text: as §1

adrenergic receptors [7] = experiment: Inhibition/reversal of tension effects of adrenalin, intravenous (products of Examples 11 to 13); assay type: in vivo; conditions: i.v.
Procedure: the doses of CRL 40,150 from 0.5 to 4 mg/kg being administered successively.

[8] = Acute intravenous toxicity in mice, products of Examples 10 to 13 (LD50); conditions: mouse, in vivo, i.v., group consisting solely of female mice
Text: (a) determined on a group of male and female mice,
(b) determined on a group consisting solely of female mice.

DMPP = experiment: Effect on the amines and reflexes: DMPP; conditions: in vivo
Text: as §1

adrenalin = experiment: Effect on the amines and reflexes: adrenalin; conditions: in vivo
Text: as §1

acetylcholine = experiment: Effect on the amines and reflexes: acetylcholine; conditions: in vivo
Text: as §1

adrenergic receptors [9] = experiment: Reversal of hypertensive effect of adrenalin (α-blocking), product of Example 8; assay type: in vivo; conditions: dogs
[10] = tested on: femoral and vertebral arteries; experiment: Oral administration, arterial flow rates (product of Example 8); assay type: in vivo, dogs; conditions: orally
dogs [11] = experiment: Intravenous perfusion in dogs anaesthetised with Nembutal (product of Example 8); assay type: in vivo; conditions: 2.5 mg/kg i.v. over 5 minutes
Procedure: as §2, §3
The product of Example 8 was perfused intravenously over the course of 5 minutes at doses of 2.5 and 5 mg/kg.

dogs [12] = experiment: Cardiovascular properties of the product of Example 3 in dogs; assay type: in vivo
Procedure: as §3
When administered intravenously to dogs at doses ranging from 1 mg to 13 mg/kg, the following results are observed:

man [13] = experiment: Administration to man in vascular complaints (product of Example 3); assay type: in vivo; conditions: tablets containing 20 mg, 2 to 3 per day
adrenergic receptors [14] = experiment: Reversal of hypertensive effect of adrenalin (α-blocking), product of Example 3; assay type: in vivo, dogs
[15] = another test, 2 mg/kg at the very start

OCCN1CCN(CC2COc3ccccc3O2)CC1 (stereo not drawn) [Example 2, 1-[2-(1,4-Benzodioxanyl)-methyl]-4-(2-hydroxyethyl)-piperazine hemifumarate]
duration of increase in vertebral flow rate [1, 15]: more than one hour | flow rate of the femoral artery [1, 15]: only increased greatly during the injection | increase in flow rate of the vertebral artery [1, 15]: 87% | increase in vertebral flow rate ([1]; first test, end of perfusion): 14% | increase in vertebral flow rate ([1]; first test, start of perfusion): 90% | effect of additional injections on the flow rate ([1]; first test, additional 0.5 and 5 mg/kg): no effect on the flow rate | effect of subsequent injections on the flow rate ([1]; second test, subsequent 1 and 2 mg/kg): no effect on the flow rate | vasodilating action (summary) ([1]; summary): can dilate either the vertebral artery or the femoral artery or both | femoral flow rate ([1]; third test, 0.5, 1, 2 and 4 mg/kg i.v. without stopping): increased very much by the first injection, decreases during the subsequent injections | hypertensive effects of adrenalin (adrenergic receptors [2]; 5 mg/kg): decreases the said effects | hypertensive effects of adrenalin (adrenergic receptors [2]; 7 mg/kg): inhibits them strongly | α + effect of adrenalin (adrenergic receptors [2]; 10 mg/kg): overcomes the α + effect of adrenalin | effect on arterial pressure AP (femoral artery; injection into femoral artery, 1, 10 and 20 mg/kg): no effect | effect on flow rate of the femoral artery (femoral artery; injection into femoral artery, doses less than 100 μg/kg): no effect | clinical result (man [3]): good results | increase in coronary flow rate (dogs [4]; 5 mg/kg i.v., 2 hours after the injection): 75% | increase in coronary flow rate, maximum effect (dogs [4]; 5 mg/kg i.v., after 1 hour): 200% | increase in maximum intraventricular pressure (dogs [4]; 5 mg/kg i.v., for 1 hour): 56% | increase in the differential arterial pressure (dogs [4]; 5 mg/kg i.v., for 1 hour): 40% | increase in ratio dp/dt (dogs [4]; 5 mg/kg i.v., for more than 1 hour): 180% | tachycardia (dogs [4]; 5 mg/kg i.v., increase): 40% | effect on arterial pressure (summary) (dogs [4]; at a higher dose): at a higher dose, it is hypotensive | tachycardiac properties (summary) (dogs [4]; at low doses): possesses tachycardiac properties at low doses | cardiac work and coronary irrigation (summary) (dogs [4]; summary): increases the cardiac work and, in parallel fashion, it increases the coronary irrigation | effect of the stimulation of the peripheral vagus (adrenergic receptors [5]; dogs): does not alter | effects of the injection of acetylcholine (adrenergic receptors [5]; dogs): does not alter | effects of the injection of isoprenalin (adrenergic receptors [5]; dogs): does not alter | α-lytic action (summary) (adrenergic receptors [5]; summary): acts as an α-lytic product | increase in flow rate (vertebral artery; 10 mg/kg): 37% | increase in flow rate (vertebral artery; 20 mg/kg): 27% | effect on vertebral flow rate (vertebral artery; doses less than 1 mg/kg): no effect

OCCN1CCN(CC2COc3ccccc3O2)CC1 (stereo not drawn) [Example 1, 1-[2-(1,4-Benzodioxanyl)-methyl]-4-(2-hydroxyethyl)-piperazine dihydrochloride]
α-blocking activity (adrenergic receptors [6]): α-blocking when administered parenterally

COc1cc(OC)c(C(=O)CN2CCN(CC3COc4ccccc4O3)CC2)c(OC)c1 (stereo not drawn) [Example 13, 1-[2-(1,4-Benzodioxanyl)-methyl]-4-(2,4,6-trimethoxyphenacyl)-piperazine dihydrochloride]
Effect on the amines and reflexes: stimulation of the peripheral vagus (peripheral vagus): not changed | Effect on the amines and reflexes: stimulation of the central vagus (central vagus): slightly reduced | dose from which the hypertensive effect of adrenalin is reduced (adrenergic receptors [7]): ≥ 0.1 mg/kg | dose from which the hypotensive effect appears (adrenergic receptors [7]; average of three different experiments): ≥ 0.2 mg/kg | LD50 [8]: 58 mg/kg | Effect on the amines and reflexes: DMPP (DMPP): effect reversed | Effect on the amines and reflexes: adrenalin (adrenalin): reversal | Effect on the amines and reflexes: acetylcholine (acetylcholine): no change

c1cnc(N2CCN(CC3COc4ccccc4O3)CC2)nc1 (stereo not drawn) [Example 8, 1-[2-(1,4-Benzodioxanyl)-methyl]-4-(2-pyrimidinyl)-piperazine dihydrochloride]
hypertensive effect of adrenalin (adrenergic receptors [9]): the hypertensive effect of adrenalin is reversed, and this manifests itself in an α-blocking action | passage into the general circulation ([10]; 10 mg/kg): passes into the general circulation | rise in femoral flow rate ([10]; 1 to 10 mg/kg, for 30 minutes): 200% | rise in vertebral flow rate ([10]; 1 to 10 mg/kg, for 30 minutes): 60% | flow rate of the femoral artery ([10]; doses less than 100 μg/kg): does not alter | flow rate of the vertebral artery ([10]; doses less than 100 μg/kg): does not alter | decrease in the vertebral flow rate (dogs [11]): 19% | effect on the mesenteric flow rate (dogs [11]): practically no effect | increase in the differential arterial pressure (dogs [11]): 50% | femoral vasodilating effect (dogs [11]; increase): 19% | tachycardia (dogs [11]; increase): 19%

OCC(O)CN1CCN(CC2COc3ccccc3O2)CC1 (stereo not drawn) [Example 3, 1-[2-(1,4-Benzodioxanyl)-methyl]-4-(2,3-dihydroxypropyl)-piperazine dihydrochloride]
effect on the AP (dogs [12]; i.v., 1 mg to 13 mg/kg): little effect on the AP or a slight hypotension | vertebral flow rate (dogs [12]; i.v., 1 mg to 13 mg/kg): no effect | cardiovascular variations after intraduodenal administration (dogs [12]; intraduodenal, 10 and 50 mg/kg): the variations described after intravenous injection are found again | result in vascular complaints (man [13]): good results in vascular complaints | α-blocking action (conclusion) (adrenergic receptors [14]; conclusion): α-blocking agent | hypertensive effect of adrenalin (adrenergic receptors [14]; intraduodenal, 10 mg/kg): reversal of the hypertensive effect of adrenalin
